Consider three compounds from ChEMBL document CHEMBL1127912, “The contribution to binding of the pyranoside substituents in the excised binding domain of FK-506” (Bioorg Med Chem Lett, 1994).

By Kd is commonly meant the constant that tells how readily two partners part at equilibrium. High values mean a looser complex, low ones a tighter complex.

The target in the assay is Peptidyl-prolyl cis-trans isomerase FKBP1A (Homo sapiens, UniProt P62942). In words: Ability to displace radiolabeled FK-506 derivative from FK506 binding protein 12.
Sequence of Peptidyl-prolyl cis-trans isomerase FKBP1A (P62942 whole entry): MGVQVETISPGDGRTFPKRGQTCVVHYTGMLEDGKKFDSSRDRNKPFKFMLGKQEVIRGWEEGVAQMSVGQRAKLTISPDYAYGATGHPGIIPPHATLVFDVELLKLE
In turn, `C=CCCC[C@H](OC(=O)[C@@H]1CCCCN1C(=O)C(=O)[C@]1(O)O[C@H](COC)[C@@H](OC)C[C@H]1C)/C(C)=C/[C@@H]1CC[C@@H](O)[C@H](OC)C1` came in with a dissociation constant (Kd) of 0.01 µM.
Turning to `C=CCCC[C@H](OC(=O)[C@@H]1CCCCN1C(=O)C(=O)[C@@]1(O)CC[C@H](OC)[C@@H](COC)O1)/C(C)=C/[C@@H]1CC[C@@H](O)[C@H](OC)C1`, binding was characterised by a dissociation constant (Kd) of 40 µM.
As for `C=CCCC[C@H](OC(=O)[C@@H]1CCCCN1C(=O)C(=O)[C@@]1(O)CCCCO1)/C(C)=C/[C@@H]1CC[C@@H](O)[C@H](OC)C1`, binding was put at a Kd of 29 µM.
